Values after ≈ are worked out from the molar mass of the structure shown. Active and inactive are the calls of the source. No cut-off for these calls is given here.
Legend:
[1] = test system: Mycobacterium tuberculosis; assay: Antitubercular activity against Mycobacterium tuberculosis H37Rv infected in human THP1 cells assessed as reduction in CFU incubated for 48 hrs; assay type: functional, organism-based
[2] = test system: Mycobacterium tuberculosis; assay: Antitubercular activity against Mycobacterium tuberculosis H37Rv assessed as reduction in bacterial cell viability incubated for 5 days by microplate alamar blue assay; assay type: functional; details: 120 h
THP-1 = assay: Cytotoxicity against human THP1 cells assessed as reduction in cell viability incubated for 48 hrs by MTT assay; assay type: cell-based; details: THP-1, 48 h

Question: NNC(=O)c1ccncc1 [ISONIAZID] was tested. Which Activity [1] did it give?
Answer: The Activity was “Active”.

Question: And the MIC90 [2]?
Answer: The MIC90 was 0.25 µg/mL (≈ 1.82 µM).

Question: What about the IC50 (THP-1) of the same molecule?
Answer: The IC50 was greater than 25 µg/mL.

From ChEMBL document CHEMBL4311978, “Transferrin conjugates of antitubercular drug isoniazid: Synthesis and in vitro efficacy” (Eur J Med Chem, 2019)
